{"source": "patent US6121257A", "about": "“Sulfamate containing macrocyclic immunomodulators” (Abbott Laboratories, priority 1999, dated 2000)", "key": {"in vivo": {"assay": "in vivo", "design": "species or system Lewis rats", "conditions": "rat, 5 mg/kg", "procedure": "In Vivo Assay of Biological Activity Whole blood concetration in the Rat.\nLewis rats (obtained from Charles River, Wilmington, Mass.), weighing 225-250 grams, were acclimated for one week in a AAALAC approved facility. All animals were fasted overnight prior to dosing and throughout the study period but were permitted free access to water. Groups of animals were given FK-506 or Example 14 at a dose of 5 mg/kg. Drugs were given in a 2 ml/kg volume of 10% ethanol, 40% propylene glycol and 2% cremophore in 5% dextrose solution for both oral (p.o.) and intraperitoneal (i.p.) administration, and in a 1 ml/kg volume of the same vehicle without cremophor for intravenous (i.v.) dosing. Blood samples were collected from the tail vein in heparinized tubes at selected time points 0.25, 2.0, and 4.0 hours after dosing.\nDrugs were separated from the hemolyzed whole blood contaminants utilizing liquid-liquid extraction with ethyl acetate:hexane (1:1 by volume). Samples were centrifuged at 1200 x g for 10 minutes (4° C.) and a constant volume of the organic layer was transferred to a conical centrifuge tube and evaporated to dryness with a gentle stream of dry air over low heat (~35° C.). The samples were reconstituted with 40% (v/v) acetonitrile in water with vortexing. The compounds of interest were separated from the co-extracted components by a 5 cm×4.6 mm, 3 μm Spherisorb ODS-2 column (Regis, Morton Grove, Ill.) with an acetonitrile:methanol: 0.1% trifluoroacetic acid/0.01 M tetramethylammonium perchlorate mixture (45:5:50 by volume for FK506, 40:5:55 for analogue Example 14) at a flow rate of 1.0 ml/min with UV detection at 205 nm. The temperature of the HPLC column was maintained at 70° C.\nThe concentration of each sample in whole blood was calculated by a least squares linear regression analysis of the peak area compared to spiked rat blood standards."}, "[1]": {"tested_on": "human mixed lymphocyte reaction (MLR)", "assay": "human mixed lymphocyte reaction (MLR) assay", "type": "cell-based", "conditions": "Table 1", "procedure": "The immunosuppressant activity of the compounds of the present invention was determined using the human mixed lymphocyte reaction (MLR) assay described by Kino, T. et al., in Transplantation Proceedings, XIX(5):36-39, Suppl. 6 (1987), hereby incorporated by reference."}}}
{"compound": "CC[C@@H]1/C=C(\\C)C[C@H](C)C[C@H](OC)[C@H]2O[C@@](O)(C(=O)C(=O)N3CCCC[C@H]3C(=O)O[C@H](/C(C)=C/[C@@H]3CC[C@@H](OS(N)(=O)=O)[C@H](OC)C3)[C@H](C)[C@@H](O)CC1=O)[C@H](C)C[C@@H]2OC", "note": "[Example 14]", "values": [{"measurement": "concentration at 0.25 h", "setting": "in vivo", "value": 1400, "unit": "ng/mL"}, {"measurement": "concentration at 2 h", "setting": "in vivo", "value": 50, "unit": "ng/mL"}, {"measurement": "elimination from the blood", "setting": "in vivo", "value": "rapidly eliminated from the blood after 2 hours"}, {"measurement": "Whole Blood Concentration at 4 hours", "setting": "in vivo; 240 min", "value": 0.00, "unit": "µg/mL"}, {"measurement": "IC50", "setting": "[1]", "value": 0.82, "unit": "nM"}]}
{"compound": "C=CC[C@@H]1/C=C(\\C)C[C@H](C)C[C@H](OC)[C@H]2O[C@@](O)(C(=O)C(=O)N3CCCC[C@H]3C(=O)O[C@H](/C(C)=C/[C@@H]3CC[C@@H](O)[C@H](OC)C3)[C@H](C)[C@@H](O)CC1=O)[C@H](C)C[C@@H]2OC", "note": "[FK-506, reference compound]", "values": [{"measurement": "concentration at 0.25 h", "setting": "in vivo", "value": 1140, "unit": "ng/mL"}, {"measurement": "concentration at 2 h", "setting": "in vivo", "value": 440, "unit": "ng/mL"}, {"measurement": "concentration at 4 h", "setting": "in vivo", "value": 430, "unit": "ng/mL"}]}
{"compound": "CC[C@@H]1/C=C(\\C)C[C@H](C)C[C@H](OC)[C@H]2O[C@@](O)(C(=O)C(=O)N3CCCC[C@H]3C(=O)O[C@H](/C(C)=C/[C@@H]3CC[C@@H](OS(=O)(=O)NC(=O)OCC45CC6CC(CC(C6)C4)C5)[C@H](OC)C3)[C@H](C)[C@@H](O)CC1=O)[C@H](C)C[C@@H]2OC", "note": "[Example 13, (1R,9S,12S,13R,14S,17R,21S,23S,24R,25S,27R)-12-((E)-2-{(1R,3R,4R)-4-[({[(1-adamantylmethoxy)carbonyl]amino}sulfonyl)oxy]-3-methoxycyclohexyl}-1-methylethenyl)-17-ethyl-1,14-dihydroxy-23,25-dimethoxy-13,19,21,27-tetramethyl-2,3,10,16-tetraoxo-11,28-dioxa-4-azatricyclo[22.3.1.0^4,9]octacos-18-ene]", "values": [{"measurement": "IC50", "setting": "[1]", "value": 21.6, "unit": "nM"}]}
{"compound": "CC[C@@H]1/C=C(\\C)C[C@H](C)C[C@H](OC)[C@H]2O[C@@](O)(C(=O)C(=O)N3CCCC[C@H]3C(=O)O[C@H](/C(C)=C/[C@@H]3CC[C@@H](OS(=O)(=O)NC(=O)OCc4cccnc4)[C@H](OC)C3)[C@H](C)[C@@H](O)CC1=O)[C@H](C)C[C@@H]2OC", "note": "[Example 9, (1R,9S,12S,13R,14S,17R,21S,23S,24R,25S,27R)-17-ethyl-1,14-dihydroxy-23,25-dimethoxy-12-((E)-2-{(1R,3R,4R)-3-methoxy-4-[({[(3-pyridinylmethoxy)carbonyl]amino}sulfonyl)oxy]cyclohexyl}-1-methylethenyl)-13,19,21,27-tetramethyl-2,3,10,16-tetraoxo-11,28-dioxa-4-azatricyclo[22.3.1.0^4,9]octacos-18-ene]", "values": [{"measurement": "IC50", "setting": "[1]", "value": 4.77, "unit": "nM"}]}
{"compound": "CC[C@@H]1/C=C(\\C)C[C@H](C)C[C@H](OC)[C@H]2O[C@@](O)(C(=O)C(=O)N3CCCC[C@H]3C(=O)O[C@H](/C(C)=C/[C@@H]3CC[C@@H](OS(=O)(=O)NC(=O)OCc4ccccc4)[C@H](OC)C3)[C@H](C)[C@@H](O)CC1=O)[C@H](C)C[C@@H]2OC", "note": "[Example 3, (1R,9S,12S,13R,14S,17R,21 S,23S,24R,25S,27R)-12-((E)-2-{(1R,3R,4R)-4-[({[(benzyloxy)carbonyl]amino]sulfonyl)oxy]-3-methoxycyclohexyl}-1-methylethenyl)-17-ethyl-1,14-dihydroxy-23,25-dimethoxy-13,19,21,27-tetramethyl-2,3,10,16-tetraoxo-11,28-dioxa-4-azatricyclo[22.3.1.0^4,9]octacos-18-ene]", "values": [{"measurement": "IC50", "setting": "[1]", "value": 3.96, "unit": "nM"}]}
{"compound": "CC[C@@H]1/C=C(\\C)C[C@H](C)C[C@H](OC)[C@H]2O[C@@](O)(C(=O)C(=O)N3CCCC[C@H]3C(=O)O[C@H](/C(C)=C/[C@@H]3CC[C@@H](OS(=O)(=O)NC(=O)OC(C)(C)C)[C@H](OC)C3)[C@H](C)[C@@H](O)CC1=O)[C@H](C)C[C@@H]2OC", "note": "[Example 4, (1R,9S,12S,13R,14S,17R,21S,23S,24R,25S,27R)-12-{(E)-2-[(1R,3R,4R)-4-({[(tert-butoxycarbonyl)amino]sulfonyl}oxy)-3-methoxycyclohexyl]-1-methylethenyl}-17-ethyl-1,14-dihydroxy-23,25-dimethoxy-13,19,21,27-tetramethyl-2,3,10,16-tetraoxo-11,28-dioxa-4-azatricyclo[22.3.1.0^4,9]octacos-18-ene]", "values": [{"measurement": "IC50", "setting": "[1]", "value": 0.99, "unit": "nM"}]}
{"compound": "CC[C@@H]1/C=C(\\C)C[C@H](C)C[C@H](OC)[C@H]2O[C@@](O)(C(=O)C(=O)N3CCCC[C@H]3C(=O)O[C@H](/C(C)=C/[C@@H]3CC[C@@H](OS(=O)(=O)NC(=O)O[C@@H]4C[C@H](C)CC[C@H]4C(C)C)[C@H](OC)C3)[C@H](C)[C@@H](O)CC1=O)[C@H](C)C[C@@H]2OC", "note": "[Example 12]", "values": [{"measurement": "IC50", "setting": "[1]", "value": 24.5, "unit": "nM"}]}
{"compound": "CC[C@@H]1/C=C(\\C)C[C@H](C)C[C@H](OC)[C@H]2O[C@@](O)(C(=O)C(=O)N3CCCC[C@H]3C(=O)O[C@H](/C(C)=C/[C@@H]3CC[C@@H](OS(=O)(=O)NC(=O)OC4CCCCC4)[C@H](OC)C3)[C@H](C)[C@@H](O)CC1=O)[C@H](C)C[C@@H]2OC", "note": "[Example 6, (1R,9S,12S,13R,14S,17R,21S,23S,24R,25S,27R)-12-((E)-2-{(1R,3R,4R)-4-[({[(cyclohexyloxy)carbonyl]amino}sulfonyl)oxy]-3-methoxycyclohexyl}-1-methylethenyl)-17-ethyl-1,14-dihydroxy-23,25-dimethoxy-13,19,21,27-tetramethyl-2,3,10,16-tetraoxo-11,28-dioxa-4-azatricyclo[22.3.1.0^4,9]octacos-18-ene]", "values": [{"measurement": "IC50", "setting": "[1]", "value": 4.7, "unit": "nM"}]}
{"compound": "CC[C@@H]1/C=C(\\C)C[C@H](C)C[C@H](OC)[C@H]2O[C@@](O)(C(=O)C(=O)N3CCCC[C@H]3C(=O)O[C@H](/C(C)=C/[C@@H]3CC[C@@H](OS(=O)(=O)NC(=O)OCc4ccccn4)[C@H](OC)C3)[C@H](C)[C@@H](O)CC1=O)[C@H](C)C[C@@H]2OC", "note": "[Example 10, (1R,9S,12S.13R,14S,17R,21S,23S,24R,25S,27R)-17-ethyl-1,14-dihydroxy-23,25-dimethoxy-12-((E)-2-[(1R,3R,4R)-3-methoxy-4-[({[(2-pyridinylmethoxy)carbonyl]amino}sulfonyl)oxy]cyclohexyl]-1-methylethenyl)-13,19,21,27-tetramethyl-2,3,10,16-tetraoxo-11,28-dioxa-4-azatricyclo[22.3.1.0^4,9]octacos-18-ene]", "values": [{"measurement": "IC50", "setting": "[1]", "value": 0.16, "unit": "nM"}]}
{"compound": "CCOC(=O)NS(=O)(=O)O[C@@H]1CC[C@@H](/C=C(\\C)[C@H]2OC(=O)[C@@H]3CCCCN3C(=O)C(=O)[C@]3(O)O[C@H]([C@@H](OC)C[C@@H](C)C/C(C)=C/[C@@H](CC)C(=O)C[C@H](O)[C@H]2C)[C@@H](OC)C[C@H]3C)C[C@H]1OC", "note": "[Example 2, (1R,9S12S,13R,14S,17R,21S,23S,24R,25S,27R)-12-{(E)-2-[(1R,3R,4R)-4-({[(ethoxycarbonyl)amino]sulfonyl}oxy)-3-methoxycyclohexyl]-1-methylethenyl}-17-ethyl-1,14-dihydroxy-23,25-dimethoxy-13,19,21,27-tetramethyl-2,3,10,16-tetraoxo-11,28-dioxa-4-azatricyclo[22.3.1.0^4,9]octacos-18-ene]", "values": [{"measurement": "IC50", "setting": "[1]", "value": 0.57, "unit": "nM"}]}
